Reference: the kinase profiling compilation of Christmann-Franck et al. (2016)

Columns and labels:
Assay in all cases: radiometric filter-binding kinase assay, Kinase HotSpot
Conditions in all cases: compound 0.5 µM; ATP 10 µM
SYK (human) = SYK (human) (UniProt P43405)
EGFR (human) = EGFR (human) (UniProt P00533)
BRSK1 (human) = BRSK1 (human) (UniProt Q8TDC3)
EPHA5 (human) = EPHA5 (human) (UniProt P54756)
CAMK2G (human) = CAMK2G (human) (UniProt Q13555)
CSNK1D (human) = CSNK1D (human) (UniProt P48730)
STK25 (human) = STK25 (human) (UniProt O00506)
MAP4K5 (human) = MAP4K5 (human) (UniProt Q9Y4K4)
CAMK1 (human) = CAMK1 (human) (UniProt Q14012)
PAK6 (human) = PAK6 (human) (UniProt Q9NQU5)
Chain of PAK6 (human) (Q9NQU5 whole entry, looked up): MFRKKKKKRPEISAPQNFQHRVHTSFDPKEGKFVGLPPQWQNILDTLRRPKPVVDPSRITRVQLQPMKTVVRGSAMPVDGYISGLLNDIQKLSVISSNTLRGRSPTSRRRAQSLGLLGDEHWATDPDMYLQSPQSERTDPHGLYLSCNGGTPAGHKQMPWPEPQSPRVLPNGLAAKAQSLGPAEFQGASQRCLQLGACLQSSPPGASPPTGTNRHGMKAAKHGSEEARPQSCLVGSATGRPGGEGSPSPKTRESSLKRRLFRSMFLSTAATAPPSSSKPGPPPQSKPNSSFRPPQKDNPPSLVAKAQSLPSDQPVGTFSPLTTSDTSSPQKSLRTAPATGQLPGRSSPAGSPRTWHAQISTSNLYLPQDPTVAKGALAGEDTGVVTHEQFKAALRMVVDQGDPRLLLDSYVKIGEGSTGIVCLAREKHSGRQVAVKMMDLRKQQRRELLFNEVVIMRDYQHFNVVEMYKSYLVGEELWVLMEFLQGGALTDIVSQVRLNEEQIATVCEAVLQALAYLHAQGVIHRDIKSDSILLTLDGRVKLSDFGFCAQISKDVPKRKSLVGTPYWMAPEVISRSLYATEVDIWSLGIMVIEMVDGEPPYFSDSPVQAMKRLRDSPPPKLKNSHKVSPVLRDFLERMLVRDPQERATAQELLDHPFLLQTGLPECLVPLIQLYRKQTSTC

EPHB1 (human) = EPHB1 (human) (UniProt P54762)
CDK3 CCNE1 (human) = CDK3 CCNE1 (human) (UniProt Q00526+P24864)
MAP3K2 (human) = MAP3K2 (human) (UniProt Q9Y2U5)
MAP2K1 (human) = MAP2K1 (human) (UniProt Q02750)
Chain of MAP2K1 (human) (Q02750 whole entry, looked up): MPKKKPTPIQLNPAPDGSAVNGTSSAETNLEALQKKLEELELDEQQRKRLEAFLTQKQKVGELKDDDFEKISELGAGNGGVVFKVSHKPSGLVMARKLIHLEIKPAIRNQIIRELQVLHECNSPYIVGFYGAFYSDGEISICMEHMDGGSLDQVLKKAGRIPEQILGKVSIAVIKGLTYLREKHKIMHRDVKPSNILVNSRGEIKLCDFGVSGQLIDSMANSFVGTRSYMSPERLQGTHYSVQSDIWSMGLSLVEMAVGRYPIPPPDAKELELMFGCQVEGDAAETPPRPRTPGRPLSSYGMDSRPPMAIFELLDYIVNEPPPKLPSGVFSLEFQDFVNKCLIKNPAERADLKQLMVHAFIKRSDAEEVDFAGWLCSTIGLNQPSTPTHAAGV

MAPK1 (human) = MAPK1 (human) (UniProt P28482)
CLK4 (human) = CLK4 (human) (UniProt Q9HAZ1)
ULK1 (human) = ULK1 (human) (UniProt O75385)
ERBB2 (human) = ERBB2 (human) (UniProt P04626)
MAP3K9 (human) = MAP3K9 (human) (UniProt P80192)
MAPK3 (human) = MAPK3 (human) (UniProt P27361)
Chain of MAPK3 (human) (P27361 whole entry, looked up): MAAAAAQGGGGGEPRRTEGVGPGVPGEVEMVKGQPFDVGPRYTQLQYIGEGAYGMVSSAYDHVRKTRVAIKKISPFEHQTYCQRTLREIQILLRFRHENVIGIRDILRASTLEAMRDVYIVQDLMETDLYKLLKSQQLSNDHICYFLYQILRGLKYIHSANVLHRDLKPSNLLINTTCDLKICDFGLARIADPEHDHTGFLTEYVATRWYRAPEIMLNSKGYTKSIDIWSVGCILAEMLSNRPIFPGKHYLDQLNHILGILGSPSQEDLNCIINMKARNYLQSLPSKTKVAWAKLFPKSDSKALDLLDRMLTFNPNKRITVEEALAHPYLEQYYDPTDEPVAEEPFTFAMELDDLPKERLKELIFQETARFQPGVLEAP

KDR (human) = KDR (human) (UniProt P35968)
NEK4 (human) = NEK4 (human) (UniProt P51957)
GSK3A (human) = GSK3A (human) (UniProt P49840)
RPS6KA5 KD2 (human) = RPS6KA5 KD2 (human) (UniProt O75582)
Chain of RPS6KA5 KD2 (human) (O75582 whole entry, looked up): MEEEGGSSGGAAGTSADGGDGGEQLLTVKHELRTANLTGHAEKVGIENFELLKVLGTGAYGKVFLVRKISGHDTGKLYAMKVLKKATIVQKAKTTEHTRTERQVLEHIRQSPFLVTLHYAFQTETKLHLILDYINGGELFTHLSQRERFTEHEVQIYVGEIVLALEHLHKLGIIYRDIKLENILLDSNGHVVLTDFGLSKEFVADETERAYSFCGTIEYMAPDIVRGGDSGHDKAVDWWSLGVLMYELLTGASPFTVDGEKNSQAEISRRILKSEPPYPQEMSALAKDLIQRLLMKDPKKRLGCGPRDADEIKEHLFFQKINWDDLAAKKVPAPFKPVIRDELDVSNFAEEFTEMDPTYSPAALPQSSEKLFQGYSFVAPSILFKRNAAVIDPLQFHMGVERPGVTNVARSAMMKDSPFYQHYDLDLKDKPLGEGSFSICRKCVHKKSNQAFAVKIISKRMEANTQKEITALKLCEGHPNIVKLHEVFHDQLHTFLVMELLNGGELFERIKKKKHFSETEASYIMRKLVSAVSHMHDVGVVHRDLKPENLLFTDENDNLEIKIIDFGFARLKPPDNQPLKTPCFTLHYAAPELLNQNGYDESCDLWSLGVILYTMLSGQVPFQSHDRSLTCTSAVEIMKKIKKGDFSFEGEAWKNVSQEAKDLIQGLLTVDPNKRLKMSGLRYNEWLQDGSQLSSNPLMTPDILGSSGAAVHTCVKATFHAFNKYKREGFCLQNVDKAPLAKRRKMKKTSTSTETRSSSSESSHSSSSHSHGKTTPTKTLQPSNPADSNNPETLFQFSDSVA

GRK6 (human) = GRK6 (human) (UniProt P43250)
RPS6KA3 KD1 KD2 (human) = RPS6KA3 KD1 KD2 (human) (UniProt P51812)
DYRK4 (human) = DYRK4 (human) (UniProt Q9NR20)
WEE1 (human) = WEE1 (human) (UniProt P30291)
FGFR3 (human) = FGFR3 (human) (UniProt P22607)
CAMKK2 (human) = CAMKK2 (human) (UniProt Q96RR4)
Chain of CAMKK2 (human) (Q96RR4 whole entry, looked up): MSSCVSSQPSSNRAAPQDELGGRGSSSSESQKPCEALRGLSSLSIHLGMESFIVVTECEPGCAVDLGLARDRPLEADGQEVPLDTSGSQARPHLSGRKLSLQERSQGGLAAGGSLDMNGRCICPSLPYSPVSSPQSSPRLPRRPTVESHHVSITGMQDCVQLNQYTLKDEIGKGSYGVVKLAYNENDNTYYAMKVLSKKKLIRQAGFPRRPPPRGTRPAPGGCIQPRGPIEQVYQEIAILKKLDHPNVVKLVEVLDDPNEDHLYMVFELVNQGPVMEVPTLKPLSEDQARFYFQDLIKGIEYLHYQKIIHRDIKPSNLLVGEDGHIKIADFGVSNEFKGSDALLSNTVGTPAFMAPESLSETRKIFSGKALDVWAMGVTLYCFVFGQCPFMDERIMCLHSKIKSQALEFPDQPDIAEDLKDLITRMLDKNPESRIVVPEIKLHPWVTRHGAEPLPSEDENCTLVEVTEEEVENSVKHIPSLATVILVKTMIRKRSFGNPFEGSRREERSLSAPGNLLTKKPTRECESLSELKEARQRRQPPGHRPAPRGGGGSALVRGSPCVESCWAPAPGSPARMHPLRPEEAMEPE

PIM3 (human) = PIM3 (human) (UniProt Q86V86)
ZAP70 (human) = ZAP70 (human) (UniProt P43403)
CDC42BPA (human) = CDC42BPA (human) (UniProt Q5VT25)
PRKG2 (human) = PRKG2 (human) (UniProt Q13237)
TGFBR1 (human) = TGFBR1 (human) (UniProt P36897)
SRPK3 (human) = SRPK3 (human) (UniProt Q9UPE1)
SRPK1 (human) = SRPK1 (human) (UniProt Q96SB4)
GSK3B (human) = GSK3B (human) (UniProt P49841)
EPHB2 (human) = EPHB2 (human) (UniProt P29323)
Chain of EPHB2 (human) (P29323 whole entry, looked up): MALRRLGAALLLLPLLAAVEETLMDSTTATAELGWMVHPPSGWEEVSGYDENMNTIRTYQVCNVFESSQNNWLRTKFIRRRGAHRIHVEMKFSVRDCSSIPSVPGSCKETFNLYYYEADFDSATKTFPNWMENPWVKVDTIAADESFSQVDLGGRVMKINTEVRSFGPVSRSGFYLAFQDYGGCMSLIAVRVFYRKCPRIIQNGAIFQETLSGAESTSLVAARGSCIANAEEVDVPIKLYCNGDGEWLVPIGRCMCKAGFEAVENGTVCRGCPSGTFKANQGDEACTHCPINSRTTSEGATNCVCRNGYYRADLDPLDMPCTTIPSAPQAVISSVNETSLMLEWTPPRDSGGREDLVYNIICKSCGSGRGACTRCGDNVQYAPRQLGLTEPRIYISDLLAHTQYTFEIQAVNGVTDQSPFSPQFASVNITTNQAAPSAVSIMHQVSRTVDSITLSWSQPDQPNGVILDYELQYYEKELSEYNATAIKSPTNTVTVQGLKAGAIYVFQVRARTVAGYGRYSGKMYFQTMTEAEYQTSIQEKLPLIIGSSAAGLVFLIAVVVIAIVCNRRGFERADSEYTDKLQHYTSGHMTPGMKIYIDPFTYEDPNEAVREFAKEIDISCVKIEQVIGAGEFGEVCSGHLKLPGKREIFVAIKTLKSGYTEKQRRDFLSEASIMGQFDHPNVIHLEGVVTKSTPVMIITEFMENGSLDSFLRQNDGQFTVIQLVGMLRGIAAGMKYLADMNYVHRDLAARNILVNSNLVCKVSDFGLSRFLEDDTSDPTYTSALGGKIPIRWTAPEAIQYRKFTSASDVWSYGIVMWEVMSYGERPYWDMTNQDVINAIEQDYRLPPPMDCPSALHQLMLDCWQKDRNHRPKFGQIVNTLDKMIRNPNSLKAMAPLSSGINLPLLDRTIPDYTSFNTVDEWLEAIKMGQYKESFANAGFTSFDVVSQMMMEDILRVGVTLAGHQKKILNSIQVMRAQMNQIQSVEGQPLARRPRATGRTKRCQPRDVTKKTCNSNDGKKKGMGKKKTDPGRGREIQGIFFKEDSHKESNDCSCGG

EPHA2 (human) = EPHA2 (human) (UniProt P29317)
BTK (human) = BTK (human) (UniProt Q06187)
CSK (human) = CSK (human) (UniProt P41240)
Chain of CSK (human) (P41240 whole entry, looked up): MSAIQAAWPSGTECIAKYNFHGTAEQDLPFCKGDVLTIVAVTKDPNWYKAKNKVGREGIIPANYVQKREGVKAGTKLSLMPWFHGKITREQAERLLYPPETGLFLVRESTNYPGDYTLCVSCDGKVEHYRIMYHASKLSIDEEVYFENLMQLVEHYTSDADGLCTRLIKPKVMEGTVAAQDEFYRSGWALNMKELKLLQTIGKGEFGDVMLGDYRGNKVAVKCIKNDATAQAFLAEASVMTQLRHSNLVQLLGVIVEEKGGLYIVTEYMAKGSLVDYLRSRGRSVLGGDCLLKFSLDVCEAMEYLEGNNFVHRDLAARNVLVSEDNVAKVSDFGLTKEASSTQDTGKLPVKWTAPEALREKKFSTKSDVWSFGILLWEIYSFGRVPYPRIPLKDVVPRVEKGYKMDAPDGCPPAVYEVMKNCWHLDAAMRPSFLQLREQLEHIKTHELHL

Chain of CAMK2G (human) (Q13555 whole entry, looked up): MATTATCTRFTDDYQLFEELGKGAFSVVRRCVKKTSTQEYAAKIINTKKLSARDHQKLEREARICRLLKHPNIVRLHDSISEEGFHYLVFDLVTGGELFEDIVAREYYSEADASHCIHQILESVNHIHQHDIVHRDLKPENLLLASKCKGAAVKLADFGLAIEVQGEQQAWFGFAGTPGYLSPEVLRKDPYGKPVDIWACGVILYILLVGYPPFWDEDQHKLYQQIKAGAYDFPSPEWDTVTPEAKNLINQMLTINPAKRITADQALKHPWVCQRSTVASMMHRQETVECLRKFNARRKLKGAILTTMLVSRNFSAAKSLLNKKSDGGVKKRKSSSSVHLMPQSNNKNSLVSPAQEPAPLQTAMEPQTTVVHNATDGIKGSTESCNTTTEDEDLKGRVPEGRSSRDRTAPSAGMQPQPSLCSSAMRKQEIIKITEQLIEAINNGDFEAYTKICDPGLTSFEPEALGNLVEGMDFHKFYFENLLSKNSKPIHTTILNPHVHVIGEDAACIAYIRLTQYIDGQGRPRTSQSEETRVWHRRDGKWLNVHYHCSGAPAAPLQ

| SMILES | residual activity (SYK (human)) | residual activity (EGFR (human)) | residual activity (BRSK1 (human)) | residual activity (EPHA5 (human)) | residual activity (CAMK2G (human)) | residual activity (CSNK1D (human)) | residual activity (STK25 (human)) | residual activity (CAMK1 (human)) | residual activity (PAK6 (human)) | residual activity (EPHB1 (human)) | residual activity (MAP3K2 (human)) | residual activity (MAPK1 (human)) | residual activity (CLK4 (human)) | residual activity (ULK1 (human)) | residual activity (ERBB2 (human)) | residual activity (MAP3K9 (human)) | residual activity (MAPK3 (human)) | residual activity (NEK4 (human)) | residual activity (GSK3A (human)) | residual activity (GRK6 (human)) | further results |
| --- | --- | --- | --- | --- | --- | --- | --- | --- | --- | --- | --- | --- | --- | --- | --- | --- | --- | --- | --- | --- | --- |
| Cc1cncc2cccc(S(=O)(=O)N3CCCN(C(=O)CN)C[C@H]3C)c12 | 100% | 98.7% | 94.2% | 95.1% | 94% | 107% | 119% | 102% | 108% | 88.7% | 92.1% | 103% | 105% | 51.8% | 99.7% | 94.4% | 103% | 95.3% | 99.6% | 85.5% | residual activity (MAP4K5 (human)): 103%; residual activity (CDK3 CCNE1 (human)): 98%; residual activity (MAP2K1 (human)): 94.9%; residual activity (KDR (human)): 99%; residual activity (RPS6KA5 KD2 (human)): 100%; residual activity (RPS6KA3 KD1 KD2 (human)): 91.8%; residual activity (DYRK4 (human)): 90.3%; residual activity (WEE1 (human)): 96.3%; residual activity (FGFR3 (human)): 97.7%; residual activity (CAMKK2 (human)): 115%; residual activity (PIM3 (human)): 103%; residual activity (ZAP70 (human)): 102%; residual activity (CDC42BPA (human)): 95.1%; residual activity (PRKG2 (human)): 88.1%; residual activity (TGFBR1 (human)): 100%; residual activity (SRPK3 (human)): 99.9%; residual activity (SRPK1 (human)): 103% |
| N#C/C(=C\c1ccc(O)c(O)c1)C(=O)NCc1ccccc1 | 116% | 72.4% | 104% | 103% | 94.1% | 98.3% | 101% | 93% | 99.4% | 87.4% | 99.8% | 92.2% | 94% | 92.9% | 97.6% | 95.5% | 106% | 98.6% | 96.5% | 101% | residual activity (MAP2K1 (human)): 94%; residual activity (KDR (human)): 95.8%; residual activity (RPS6KA5 KD2 (human)): 102%; residual activity (RPS6KA3 KD1 KD2 (human)): 100%; residual activity (DYRK4 (human)): 106%; residual activity (WEE1 (human)): 89.9%; residual activity (GSK3B (human)): 106%; residual activity (EPHB2 (human)): 99.7%; residual activity (FGFR3 (human)): 98.2%; residual activity (CAMKK2 (human)): 97.4%; residual activity (PIM3 (human)): 95.8%; residual activity (ZAP70 (human)): 101%; residual activity (EPHA2 (human)): 105%; residual activity (CDC42BPA (human)): 99.4%; residual activity (PRKG2 (human)): 98.6%; residual activity (BTK (human)): 99.8%; residual activity (CSK (human)): 101%; residual activity (TGFBR1 (human)): 97.6%; residual activity (SRPK3 (human)): 93.9%; residual activity (SRPK1 (human)): 104% |
| COc1cc(Nc2c(C#N)cnc3cc(OCCCN4CCN(C)CC4)c(OC)cc23)c(Cl)cc1Cl | 21.1% | 3.84% | 97.5% | 37.1% | 131% | 10.9% | 10.1% | 68.9% | 105% | 11.8% | 23.5% | 93.7% | 76.6% | 79.1% | 32.9% | 16.5% | 98.9% | 32.6% | 103% | 99.5% | residual activity (MAP4K5 (human)): 1.72%; residual activity (CDK3 CCNE1 (human)): 91.9%; residual activity (RPS6KA5 KD2 (human)): 90.8%; residual activity (RPS6KA3 KD1 KD2 (human)): 80.1%; residual activity (DYRK4 (human)): 97.9%; residual activity (WEE1 (human)): 40.5%; residual activity (GSK3B (human)): 99.9%; residual activity (EPHB2 (human)): 17.4%; residual activity (FGFR3 (human)): 82.6%; residual activity (CAMKK2 (human)): 85.1%; residual activity (PIM3 (human)): 97.7%; residual activity (ZAP70 (human)): 101%; residual activity (CDC42BPA (human)): 112%; residual activity (PRKG2 (human)): 109%; residual activity (BTK (human)): 5.69%; residual activity (CSK (human)): 12.3%; residual activity (TGFBR1 (human)): 99%; residual activity (SRPK3 (human)): 106%; residual activity (SRPK1 (human)): 98.5% |
| COc1ccc2c(c1)/C(=C/c1cnc[nH]1)C(O)=N2 | 93.9% | 99.4% | 47.1% | 86.2% | 94.6% | 93.6% | 86.2% | 103% | 101% | 92.2% | 89.6% | 93.1% | 72.6% | 53.4% | 101% | 58% | 87.2% | 96% | 26.2% | 85.2% | residual activity (CDK3 CCNE1 (human)): 35.2%; residual activity (MAP2K1 (human)): 94.8%; residual activity (KDR (human)): 78.7%; residual activity (RPS6KA5 KD2 (human)): 89.2%; residual activity (DYRK4 (human)): 98.5%; residual activity (WEE1 (human)): 94.2%; residual activity (GSK3B (human)): 35.4%; residual activity (EPHB2 (human)): 100%; residual activity (FGFR3 (human)): 65%; residual activity (CAMKK2 (human)): 89.5%; residual activity (PIM3 (human)): 99%; residual activity (ZAP70 (human)): 92.8%; residual activity (EPHA2 (human)): 98.4%; residual activity (CDC42BPA (human)): 98.5%; residual activity (PRKG2 (human)): 99.7%; residual activity (BTK (human)): 101%; residual activity (CSK (human)): 96.1%; residual activity (TGFBR1 (human)): 98.1%; residual activity (SRPK3 (human)): 96.2%; residual activity (SRPK1 (human)): 98% |
| Fc1ccc(-c2nc3n(c2-c2ccncc2)CCS3)cc1 | 98.3% | 90.7% | 93.9% | 89.7% | 90.5% | 6.99% | 104% | 107% | 106% | 106% | 99.8% | 106% | 106% | 82.6% | 105% | 83.6% | 103% | 93.5% | 116% | 103% | residual activity (MAP4K5 (human)): 98.7%; residual activity (CDK3 CCNE1 (human)): 97%; residual activity (MAP2K1 (human)): 93.6%; residual activity (KDR (human)): 95.7%; residual activity (RPS6KA3 KD1 KD2 (human)): 107%; residual activity (DYRK4 (human)): 106%; residual activity (WEE1 (human)): 92.2%; residual activity (GSK3B (human)): 105%; residual activity (EPHB2 (human)): 99.3%; residual activity (FGFR3 (human)): 91.8%; residual activity (CAMKK2 (human)): 99.9%; residual activity (PIM3 (human)): 105%; residual activity (ZAP70 (human)): 107%; residual activity (EPHA2 (human)): 107%; residual activity (CDC42BPA (human)): 88.7%; residual activity (PRKG2 (human)): 93.9%; residual activity (BTK (human)): 103%; residual activity (TGFBR1 (human)): 106%; residual activity (SRPK3 (human)): 98.5%; residual activity (SRPK1 (human)): 100% |
